Measured values reported in US20110009332A1, “Therapeutic Treatment Of Wounds” (SOUTHWEST RESEARCH INSTITUTE, priority 2009, published 2011).
Where a SMILES comes first, the peptide text is derived from it. The star is where a group is joined. Cbz = O=C(OCc1ccccc1)*; OtBu = CC(C)(C)O*

System: BMP-2
Test: BMP-2 gene expression (qPCR, normalized over 18S) in human dermal fibroblasts
Type: cell-based
Description: An examination of gene expression of BMP-2 was conducted using a number of proteasome inhibitors including, proteasome inhibitor-1, curcumin, MG-132 and bortezomib. Human neonatal dermal fibroblasts (AllCells, Catalog No. HN006001) were maintained in Dulbecco's modified Eagle's medium (DMEM) supplemented with 10% fetal bovine serum. Early passage cells were plated at 2×10^4 cells/cm^2 and grown in humidified 5% CO2 at 37° C. for 24 hours. Spent media was replaced the following day with assay media including Proteasome inhibitor-1 was added in DMEM at 1 μM and 0.1 μM. Untreated cells were used as the control group. For the human osteogenesis PCR array, the experimental group was treated only at 1 μM.
Phenol-chloroform extraction was performed to isolate the total RNA for real time polymerase chain reaction array. More specifically, the total RNA was prepared using TRI REAGENT (Ambion, product number 9738), wherein the total RNA was obtained from the human neonatal dermal fibroblasts. Note that isolation was performed as per the instructions provided with the TRI REAGENT. The RNA was used for subsequent quantitative polymerase chain reaction (qPRC) gene expression of BMP-2 measured using hydrolysis probes (TAQMAN probes available from Applied Biosystems) as described further below.
Concentration and integrity of the obtained total RNA was assessed by absorbance in a spectrophotometer at 260 nm and 280 nm and by electrophoresis in 1% agarose with formaldehyde loading dye. For TAQMAN gene expression assays, cDNA was synthesized from 2 μg of total RNA using the High Capacity cDNA Reverse Transcription Kit (Applied Biosystems, product number 4368814), again following the protocol supplied with the kit. The resulting cDNA was diluted 1:10.
For TAQMAN gene expression, gene-specific fluorescent labeled TAQMAN primers for FAM-BMP2 (Applied Biosystems, product number Hs00154192.m1) and TAQMAN reference VIC-18S ribosomal RNA (Applied Biosystems, product number 4310893E) were used to target the gene of interest. A cocktail of universal master mix (Applied Biosystems, product number 4369016) was prepared individually for both set of primers which contained Taq Polymerase, dNTPs, and buffer. Template cDNA's were added separately to respective individual wells in triplicate samples. PCR was performed on StepOne Plus Real Time System instrument (Applied Biosystems). The amplification program consisted of 1 cycle of 95° C. with 10 minute hold (hot start) followed by 50 cycles of 95° C. with 15 second annealing hold and 1 minute 60° C. specified acquisition hold.
For human osteogenisis PCR array, total RNA was prepared using silica matrix purification using RNEASY MINI KIT (Qiagen, product number 74101) according to the manufacturer's recommendations. cDNA was synthesized from 1 μg of purified DNA-free RNA accordingly to RT^2First Strand Kit (SABiosciences, C-03). The resulting cDNA was diluted 1:30 and amplified. The procedure for the PCR array using real-time PCR is based on the RT^2 Profiler PCR array system instructions for Human Osteogenesis (SABiosciences, product number PAHS-026C). A cocktail reaction mix was setup as recommended by the PCR manufacturer (SABiosceiences, product number PA-012). PCR was performed using the same temperature parameters as used with the StepOne Plus Real Time System instrument. The Ct value of endogenous reference gene (i.e. 18s) was used to control for input RNA and then used to normalize target gene (i.e. BMP-2) tested from the same cDNA sample (Δ Ct), and then calibrated to an internal reference sample (ΔΔCt). Change in gene expression was determined by the expression 2̂-(ΔΔCt).
In addition, as alluded to above a similar methodology using 10 μmM and 100 μM of curcumin, 0.1 μM and 1 μM of bortezomib, and 0.1 μM and 1 μM of MG-132 proteasome inhibitors was performed.

[1] = 0.1 μM inhibitor, FIG. 24, non-treated approximately 1.50
[2] = 1 μM inhibitor, FIG. 24, non-treated approximately 1.50

## CC(C)C[C@@H](C=O)NC(=O)[C@H](CC(C)C)NC(=O)[C@H](CC(C)C)NC(=O)OCc1ccccc1 [MG132] (Cbz-Leu-Leu-Leu-aldehyde)
[1]
  BMP-2/18S mRNA levels: 5.95 a.u.
[2]
  BMP-2/18S mRNA levels: approximately 9.51 a.u.

## COc1cc(/C=C/C(=O)CC(=O)/C=C/c2ccc(O)c(OC)c2)ccc1O [curcumin]
10 μM curcumin, FIG. 23, non-treated approximately 1.38
  BMP-2/18S mRNA levels: 2.87 a.u.
100 μM curcumin, FIG. 23, non-treated approximately 1.38
  BMP-2/18S mRNA levels: 0.903 a.u.

## CC[C@H](C)[C@H](NC(=O)OCc1ccccc1)C(=O)N[C@@H](CCC(=O)OC(C)(C)C)C(=O)N[C@@H](C)C(=O)N[C@H](C=O)CC(C)C [PS-1, Z-Ile-Glu(OBu^t)-Ala-Leu-H] (Cbz-IE(OtBu)AL-aldehyde)
0.1 μm PS-1, FIG. 22, non-treated control approximately 1.38
  BMP-2/18S mRNA levels: 9.01 au
1.0 μm PS-1, FIG. 22, non-treated control approximately 1.38
  BMP-2/18S mRNA levels: 12.5 au

## CC(C)C[C@H](NC(=O)[C@H](Cc1ccccc1)NC(=O)c1cnccn1)B(O)O [bortezomib]
[1]
  BMP-2/18S mRNA levels: 6.55 a.u.
[2]
  BMP-2/18S mRNA levels: 9.68 a.u.
